Reference: patent publication US20100331361A1, “PHARMACEUTICAL COMPOSITION CONTAINING ALPHA-ADRENERGIC RECEPTOR ANTAGONIST AND AN ANTI-MUSCARINIC AGENT AND METHOD OF IMPROVING LOWER URINARY TRACT SYMPTOMS ASSOCIATED WITH PROSTATIC HYPERTROPHY” (ASTELLAS PHARMA INC., priority 2007, published 2010)
Counter-ions that a name gives are not always drawn.

Assays:
[1] = tested on: Male human patients with prostatic hypertrophy who still had symptoms of overactive bladder; assay: I-PSS evaluation after four weeks, Single Group vs Combination Group (Example 1); type: in vivo; parameters: key to Scores of voiding symptoms (2) (4) (7) / Scores of voiding symptoms (2) (4) (7), Change / Total scores of I-PSS / Scores of storage symptoms (1) (3) (5) (6) / Scores of storage symptoms (1) (3) (5) (6), Change: summed item scores, each 0-5; higher = worse symptoms
From the text: I-PSS is one of the criteria to evaluate the severity of the foregoing lower urinary tract symptoms by scoring responses to the following questions:
(2) During the last month, have you had to urinate again in less than two hours after you last urinated? (3) During the last month, have you experienced interrupted urination? (4) During the last month, have you found it difficult to postpone urination? […] (6) During the last month, have you had to strain to urinate? (7) During the last month, how many times did you typically have to get up to urinate after you went to bed until you got up in the morning?
The indices (1), (3), (5) and (6) evaluate voiding symptoms, and indices (2), (4) and (7) evaluate storage symptoms. Among these, responses to (1)-(6) are scored: 0 if the response was not at all, 1 if fewer than 1 time in 5, 2 if fewer than 1 time in 2, 3 if about 1 time in 2, 4 if more than 1 time in 2, and 5 if almost always. Additionally, the responses to (7) are respectively scored: 0, 1, 2, 3, 4, and 5 if the response was none, 1 time, 2 times, 3 times, 4 times, and 5 times or more.
Male human patients with prostatic hypertrophy who still had symptoms of overactive bladder (urgency, pollakiuria, urinary incontinence and/or nocturia, and the like.) after treatment with an α receptor antagonist for four weeks or longer were allocated for administration to two treatment groups: (1) tamsulosin hydrochloride 0.2 mg (hereinafter referred to as “Single Group”), and (2) tamsulosin hydrochloride 0.2 mg and solifenacin succinate 2.5 mg (hereinafter referred to as “Combination Group”), and then their symptoms were evaluated by I-PSS after four weeks of treatment. In Table 1 since the score of I-PSS becomes greater as the symptom worsens, greater minus change in scores indicates greater efficacy for the symptoms.

[2] = tested on: patients with prostatic hypertrophy accompanied with overactive bladder symptoms; details: cited from earlier work
[3] = After treatment of 4 weeks, tamsulosin hydrochloride 0.2 mg alone or with solifenacin succinate 2.5 mg
[4] = Before treatment, tamsulosin hydrochloride 0.2 mg alone or with solifenacin succinate 2.5 mg
[5] = Change after 4 weeks, tamsulosin hydrochloride 0.2 mg alone or with solifenacin succinate 2.5 mg

Compound: CCOc1ccccc1OCCN[C@H](C)Cc1ccc(OC)c(S(N)(=O)=O)c1 [Single, (R)-5-(2-{[2-(2-ethoxyphenoxy)ethyl]amino}propyl-2-methoxybenzene-1-sulfonamide hydrochloride]
- Scores of storage symptoms (1) (3) (5) (6) [1, 3]: 5.8
- Scores of voiding symptoms (2) (4) (7) [1, 3]: 4.2
- Total scores of I-PSS [1, 3]: 10.8
- Total scores of I-PSS ([1]; Before treatment, tamsulosin hydrochloride 0.2 mg alone (Single) or with solifenacin succinate 2.5 mg (Combination)): 11.6
- Scores of storage symptoms (1) (3) (5) (6) [1, 4]: 6.5
- Scores of voiding symptoms (2) (4) (7) [1, 4]: 4.2
- Scores of storage symptoms (1) (3) (5) (6), Change [1, 5]: −0.7
- Scores of voiding symptoms (2) (4) (7), Change [1, 5]: 0.0
- Total scores of I-PSS, Change [1, 5]: −0.8

Compound: CCCOC(C(=O)OC1CCN(C)CC1)(c1ccccc1)c1ccccc1 [Propiverine]
- acute urinary retention (AUR) ([2]; added to doxazosin): no acute AUR was observed
- effect on the urinary flow rate ([2]; added to doxazosin): did not affect

Compound: COc1cc2nc(N3CCN(C(=O)C4COc5ccccc5O4)CC3)nc(N)c2cc1OC (centres unmarked) [doxazosin]
- improvement of the storage symptom score ([2]; in vivo): 2.9 points
- improvement of the total I-PSS ([2]; in vivo): 7.3 points
- improvement of the voiding symptom score ([2]; in vivo): 4.5 points
